The target in data set [1] is DNA gyrase subunit B (Staphylococcus aureus, UniProt P0A0K8). The data set can be described thus: Inhibition of ATPase activity in Staphylococcus aureus GyrB tetramer in presence of Escherichia coli GyrA by ammonium molybdate/malachite green-based absorbance assay.
Data set [2] can be described thus: Inhibition of ATPase activity in Escherichia coli GyrA/GyrB by ammonium molybdate/malachite green-based absorbance assay.
Data set [3] is described as follows: Inhibition of ATPase activity in Escherichia coli ParC/ParE by ammonium molybdate/malachite green-based absorbance assay.
Data set [4] can be described thus: Inhibition of ATPase activity in Escherichia coli ParE by ammonium molybdate/malachite green-based absorbance assay.
Data set [5] has as its system Staphylococcus aureus. The data set can be described thus: Antibacterial activity against methicillin-sensitive wild type Staphylococcus aureus assessed as growth inhibition after 18 to 24 hrs by CLSI broth microdilution method. Type of data set: functional.
Data set [6] concerns Staphylococcus aureus. The data set can be described thus: Antibacterial activity against methicillin-resistant and […] Staphylococcus aureus assessed as growth inhibition after 18 to 24 hrs by CLSI broth microdilution method. Type of data set: functional.
For data set [7], the system named is Moraxella catarrhalis. The data set can be described thus: Antibacterial activity against wild type Moraxella catarrhalis ATCC 43617 assessed as growth inhibition after 18 to 24 hrs by CLSI broth microdilution method. Type of data set: functional.
Data set [8] can be described thus: Antibacterial activity against wild type Haemophilus influenzae Rd KW20 ATCC 51907 assessed as growth inhibition after 18 to 24 hrs by CLSI broth microdilution method. Type of data set: functional.
In data set [9] the test system is Escherichia coli. The data set can be described thus: Antibacterial activity against wild type Escherichia coli W3110 assessed as growth inhibition after 18 to 24 hrs by CLSI broth microdilution method. Type of data set: functional.
Data set [10] relates to Escherichia coli. The data set can be described thus: Antibacterial activity against tolC efflux pump deficient Escherichia coli W3110 assessed as growth inhibition after 18 to 24 hrs by CLSI broth microdilution method. Type of data set: functional.
Data set [11] can be described thus: Antibacterial activity against Streptococcus pneumoniae D39 NCTC 7466 assessed as growth inhibition after 18 to 24 hrs by CLSI broth microdilution method. Type of data set: functional.
Data set [12] is described as follows: Octanol-phosphate buffer partition coefficient, log D of the compound at pH 7.4 after 1 hr by shake flask method. Type of data set: physicochemical.

The results in this text go back to ChEMBL document CHEMBL3232928, “Fragment-to-hit-to-lead discovery of a novel pyridylurea scaffold of ATP competitive dual targeting type II topoisomerase inhibiting antibacterial agents” (J Med Chem, 2013).

≈ marks a conversion by molar mass, not a printed value. Where only a bound is given, the exact number is not on record here.

Sequence of DNA gyrase subunit B (P0A0K8 whole entry): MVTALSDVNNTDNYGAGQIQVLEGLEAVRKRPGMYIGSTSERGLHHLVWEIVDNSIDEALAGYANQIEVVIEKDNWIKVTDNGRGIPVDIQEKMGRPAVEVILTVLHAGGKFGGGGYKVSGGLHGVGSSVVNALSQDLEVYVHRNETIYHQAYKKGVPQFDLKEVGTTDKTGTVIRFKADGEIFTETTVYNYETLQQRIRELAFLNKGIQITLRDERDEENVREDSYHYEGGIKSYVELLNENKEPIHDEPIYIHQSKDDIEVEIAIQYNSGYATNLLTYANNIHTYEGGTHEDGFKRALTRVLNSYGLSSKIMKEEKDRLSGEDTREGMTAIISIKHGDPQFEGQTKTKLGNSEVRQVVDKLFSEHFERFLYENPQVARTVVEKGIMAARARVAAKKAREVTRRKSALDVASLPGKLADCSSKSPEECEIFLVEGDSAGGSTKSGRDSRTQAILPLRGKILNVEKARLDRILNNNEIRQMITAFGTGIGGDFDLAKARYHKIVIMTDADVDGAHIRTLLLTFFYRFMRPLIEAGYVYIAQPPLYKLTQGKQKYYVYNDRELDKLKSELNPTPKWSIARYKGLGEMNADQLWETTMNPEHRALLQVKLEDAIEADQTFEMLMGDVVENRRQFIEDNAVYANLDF

As to `CCNC(=O)Nc1ccc(-c2cccnc2)cn1`, the IC50 is 2.7 µM in [1], 2 µM in data set [2], 80 µM in [3] and 1.4 µM in data set [4]. For the same compound, the MIC in data set [5] was above 48 mg/L; in [6], above 64 mg/L; in [7], above 48 mg/L; in data set [8], above 48 mg/L; in data set [9] it was above 48 mg/L; in [10] it was above 48 mg/L.
Turning to `CCNC(=O)Nc1ccccc1`, the IC50 in [1] was above 1000 µM.
With `CCNC(=O)Nc1ccc(-c2cccc(C(=O)O)c2)cn1`, the IC50 came out at 3.4 µM in data set [1], 4.7 µM in [2], 69 µM in data set [3] and 2 µM in data set [4]. Further, the MIC in data set [11] was 21 mg/L (≈ 73.6 µM); in data set [5], above 64 mg/L; in data set [7], 42 mg/L (≈ 147 µM); in data set [8] it was 59 mg/L (≈ 207 µM); in data set [9], above 64 mg/L; in data set [10] it was above 64 mg/L.
As to `CCNC(=O)Nc1ccc(Oc2cccc(C(=O)O)c2)cn1`, the IC50 is 9.9 µM in data set [1], 4.4 µM in [2], above 200 µM in data set [3] and 16 µM in data set [4]. The MIC in data set [11], in [5], in [7], in data set [8], in [9] and in [10] was above 64 mg/L in each case.
Take `CCN(CC)C(=O)Nc1ccccn1`: the IC50 in [1] is 38 µM.
For the compound `CCNC(=O)Nc1ccc(-c2nc3cccc(C(=O)O)c3s2)cn1`, the results for the IC50 in [1] and in data set [3] were 0.1 µM and 2.1 µM, respectively. Besides, the MIC was 2 mg/L (≈ 5.84 µM) in [11]; above 64 mg/L in data set [5]; 8 mg/L (≈ 23.4 µM) in data set [7]; 16 mg/L (≈ 46.7 µM) in [8]; above 64 mg/L in data set [9]; 8 mg/L (≈ 23.4 µM) in data set [10].
Consider `CCNC(=O)Nc1cc(-c2ccncc2)c(-c2cncc(C(=O)O)c2)cn1`, for which the concentration for half-maximal inhibition (IC50) was determined as 0.32 µM in [1], 0.24 µM in data set [2], 11 µM in data set [3] and 0.31 µM in data set [4]. The MIC in [11], in data set [5], in data set [7], in [8], in data set [9] and in data set [10] was above 9 mg/L throughout. In addition, in data set [12], the logD at 1 h is -0.82.
With `CCNC(=O)Nc1ncccn1`, the IC50 in [1] stood at 80 µM.
On to `CCNC(=O)Nc1ccc(-c2ncc(C(=O)O)s2)cn1`, for which the IC50 in data set [1] came out at 0.27 µM; in data set [2], 0.24 µM; in [3] it was 8.8 µM; in [4], 0.11 µM. Besides, the MIC was 64 mg/L (≈ 219 µM) in data set [11]; above 64 mg/L in data set [5]; above 64 mg/L in data set [7]; above 64 mg/L in [8]; above 64 mg/L in data set [9].
For the compound `CCNC(=O)Nc1nc2ccccc2[nH]1`, in [1], the IC50 was 64 µM.
As for `CCNC(=O)Nc1cc(-c2ccccc2)c(-c2cncc(C(=O)O)c2)cn1`, the IC50 amounted to 0.06 µM in data set [1], 0.096 µM in data set [2], 2 µM in data set [3] and 0.17 µM in data set [4]. Moreover, the MIC in [11] was 4.5 mg/L (≈ 12.4 µM); in [5], above 64 mg/L; in data set [7], above 64 mg/L; in data set [8] it was above 64 mg/L; in data set [9], above 64 mg/L; in data set [10] it was 36 mg/L (≈ 99.3 µM). In data set [12], the logD at 1 h was -0.31.
In the case of `CCCNC(=O)Nc1ccccn1`, the IC50 in [1] is above 1000 µM.
Consider `CNC(=O)Nc1ccccn1`, for which the IC50 in [1] amounted to 100 µM.
In the case of `C#CCNC(=O)Nc1ccccn1`, in data set [1], the concentration for half-maximal inhibition (IC50) was 350 µM.
Take `CCNC(=O)Nc1ccc(-c2ccc(C(=O)O)cc2)cn1`: the IC50 in data set [1] worked out at 0.88 µM; in data set [2] it was 1.6 µM; in data set [3] it was 28 µM; in data set [4] it was 0.054 µM. For the same compound, the MIC in data set [5] is above 64 mg/L; in data set [7], 4 mg/L (≈ 14 µM); in [8], 16 mg/L (≈ 56.1 µM); in data set [9] it was above 64 mg/L; in [10], 16 mg/L (≈ 56.1 µM).
Turning to `O=C(Nc1ccccn1)NC1CC1`, in data set [1], the IC50 stood at 1000 µM.
On to `CCNC(=O)Nc1ccc(-c2nc(C(=O)O)cs2)cn1`, for which the IC50 in [1] turned out to be 3.6 µM. For the same compound, the MIC in data set [11], in data set [5], in data set [7], in data set [8] and in data set [9] was above 64 mg/L in each case.
In the case of `CCNC(=O)Nc1cc(-c2noc(C)n2)c(-c2cncc(C(=O)O)c2)cn1`, the IC50 in data set [4] was 0.15 µM. Further, the MIC in data set [11], in data set [5], in [8], in [9] and in data set [10] was above 64 mg/L in each case. The logD at 1 h in data set [12] is -2.1.
As to `CCNC(=O)Nc1cc(-c2cccnc2)c(-c2cncc(C(=O)O)c2)cn1`, the half-inhibitory concentration (IC50) in data set [1] was 0.27 µM; in data set [2], 0.3 µM; in [3] it was 10 µM; in [4], 0.31 µM. Further, the MIC in data set [11], in data set [5], in data set [7], in data set [8], in data set [9] and in [10] was above 64 mg/L in each case. The logD at 1 h in data set [12] is -1.5.
With `CCNC(=O)Nc1ccc(-c2cncc(C(=O)O)c2)cn1`, the results for the IC50 in [2], in data set [3] and in data set [4] were 1.4 µM, 24 µM and 0.4 µM, respectively. For the same compound, the MIC in [11], in data set [5], in data set [7], in data set [8], in data set [9] and in data set [10] was above 64 mg/L throughout.
With `CCNC(=O)Nc1cc(Cl)c(-c2cncc(C(=O)O)c2)cn1`, the IC50 in [1] came out at 0.13 µM; in [2], 0.058 µM; in [3], 4.3 µM; in data set [4] it was 0.022 µM. The MIC in data set [11] is 4 mg/L (≈ 12.5 µM); in [5], above 64 mg/L; in data set [7] it was above 64 mg/L; in data set [8], above 64 mg/L; in data set [9], above 64 mg/L; in data set [10], above 64 mg/L. This compound showed a log distribution coefficient (logD) at 1 h in [12] of -1.1.
For `CCNC(=O)Nc1ccccn1`, the IC50 in data set [1] was 32 µM.
Regarding `CCNC(=O)Nc1cc(-c2nc(C(C)(C)C)cs2)c(-c2cncc(C(=O)O)c2)cn1`, the half-inhibitory concentration (IC50) was determined as 0.03 µM in [1], 0.012 µM in data set [2], 2.3 µM in data set [3] and 0.072 µM in [4]. In addition, the MIC was 0.66 mg/L (≈ 1.55 µM) in data set [11]; above 64 mg/L in data set [5]; 43 mg/L (≈ 101 µM) in data set [7]; 43 mg/L (≈ 101 µM) in [8]; above 64 mg/L in data set [9]; 11 mg/L (≈ 25.9 µM) in data set [10]. Besides, the logD at 1 h in [12] came out at 0.12.
Turning to `CCNC(=O)Nc1cc(Br)c(-c2cncc(C(=O)O)c2)cn1`, the IC50 in data set [1] was determined as 0.3 µM; in data set [2], 0.068 µM; in data set [3], 4.8 µM; in [4], 0.053 µM. The MIC is 4.6 mg/L (≈ 12.6 µM) in [11]; above 9 mg/L in data set [5]; above 9 mg/L in data set [8]; above 9 mg/L in data set [9]; above 9 mg/L in [10]. Further, the logD at 1 h in data set [12] was -1.
`O=C(NCC(F)(F)F)Nc1ccccn1`: the IC50 in data set [1] is above 1000 µM.
Still for that read-out and setting: next, `CCOC(=O)Nc1ccccn1`: above 1000 µM.
